Measured values taken from the NIST ThermoML archive (doi:10.1016/j.tca.2009.08.016).
Numbers after ± are expanded uncertainties.

Experiments:
[1] = Molar enthalpy of transition or fusion; settings: Crystal; DSC
[2] = Crystal; DTA

Molar enthalpy of transition or fusion [1] [kcal/mol] | Normal melting temperature [2] [°C] | SMILES
3.92 ± 0.12 | 67.54 ± 1.1 | CCN(CC)CC(=O)Nc1c(C)cccc1C [2-(diethylamino)-N-(2,6-dimethylphenyl)acetamide]
4.59 ± 0.239 | 41.93 ± 1.1 | O=C(Oc1ccccc1)c1ccccc1O [phenyl salicylate]
